Patent publication US20250152616A1, “COMPOSITIONS FOR AND METHODS OF TREATING, PREVENTING, AND/OR MITIGATING PAIN” (Duke University, priority 2022, published 2025)

Tests used:
dissociated DRG neurons = experiment: FluoVolt membrane potential imaging of dissociated DRG neurons; assay type: cell-based, mouse; conditions: 1 day NGF followed by adenosine treatment; capsaicin stimulation
Description: DRG were isolated from mice using a modified version of the previously described protocol (Perner C, et al. (2021) STAR Protoc. 2:100333). Briefly, mice were euthanized and dosed in 70% ethanol to prevent fur contamination. Mice were positioned prone, and an incision was made along the spine from the neck to the base of the tail. Under a dissecting microscope, the surrounding soft tissue of the spinal column was removed from the dorsal side by Friedman-Pearson Rongeurs (Fine Science Tools, Foster City, CA, Cat #16021-14) from the mid thoracic region to the lumbosacral joint. The vertebral bone surrounding the DRG was gently crushed and removed with rongeurs exposing the spinal cord. The DRG were carefully extracted near the foramen between the vertebral levels. L3 and L4 DRG were collected for analyses. Dissected DRG were placed directly into ice-cold DMEM-F12 medium (ThermoFisher, Cat #11320033) for in vitro culture, Trizol (ThermoFisher, Cat #15596018) for PCR analyses, or 4% PFA for histology. For cell culture experiments, collected DRG were digested in digestion solution comprised of collagenase type II (Worthington, Lakewood, NJ, Cat #LS004176) and dispase (1.5 mg/mL each) dissolved in DMEM/F12. […]
DRG neuron potential changes were evaluated with FluoVolt, a voltage sensitive indicator dye (ThermoFisher, Cat #F10488). […]

fractured tibiae = experiment: Safranin O histology of fractured tibiae; assay type: in vivo, mouse; conditions: 21 days post-fracture
Method: In all experiments, 12-week-old to 16-week-old C57BL/6J male mice (Jackson Laboratory, Bar Harbor, ME) and Lepr-cre; tdTomato reporter mice were used. The average mouse weight was 25 grams and mice were housed in groups of four to five, and kept on a 12-hr light-dark cycle with lights off at 1800 hr. All animals had ad libitum access to chow (PMI LabDiet 5001) and water. Fracture surgeries were performed as previously described (Zeng Y, et al. (2020) Adv Mater. 32:e1906022). Animals were anesthetized by isoflurane and injected with 1 mg/kg buprenorphine SR-LAB (ZooPharm, Laramie, WY). Each mouse was then placed in a supine position with the right tibia disinfected. After skin incision and reflection, proximal to the right knee, a 0.7-mm pin was inserted from the tibial plateau through the medullary cavity to stabilize the tibia, and a cut was made at the tibial midshaft to induce a transverse fracture. Bupivacaine (0.5%; Hospira, Lake Forest, IL) at ˜1 mg/kg body weight was applied at the surgical site following wound closure using 2 reflex clips (5 mm). For animals treated with control and adenosine-loaded macroporous hydrogels, macroporous hydrogels measuring approximately 5 mm (length)×3 mm (width)×1 mm (thick) containing either 1.05±0.1 mg adenosine (ADO) or no adenosine (CTL) were implanted adjacent to the fractures immediately. […]

## Nc1ncnc2c1ncn2[C@@H]1O[C@H](CO)[C@@H](O)[C@H]1O [adenosine]
Dissociated DRG neurons
  NGF-induced increase in membrane potential (FluoVolt): attenuated
Fractured tibiae
  callus size vs controls (histology): smaller callus size
  cortical bone at fracture site vs controls (histology): more cortical bone across the fracture site
